In US11459313B2, “Aziridinyl and amino dimeric naphthoquinone compounds and use for acute myeloid leukemia” (University of Maryland, Baltimore, priority 2016, dated 2022):
“Also recorded” adds a separate entry of the source. Where two headings read alike, the source gives them in different places.

Columns and labels:
[1] = test system: MV4-11 cells; experiment: Cell survival assay (trypan blue exclusion), MV4-11; assay type: cell-based, human
Method: MOLM-.14 and THP-1 cells were seeded in 96-well plates and treated with DMSO, mono- and bis-aziridinyl dimeric naphthoquinone compounds, or dimethylamine dimeric naphthoquinone Compound 114 as previously described. Cells were incubated for 72 hours, and then counted using trypan blue exclusion on the Countess® automated cell counter (Life Technologies®). Cell counts were performed in duplicates, and the averages were graphed using GraphPad Prism® software (GraphPad®).
Cell survival was determined using trypan blue exclusion as described above, in which cells are plated and the following day treated similarly to the proliferation assay. Compound 102 (also referred to here as “66”) was effective in decreasing cell number at increasing concentrations of compound in MV4-11 cells.

[2] = test system: MV4-11 cells; experiment: WST-1 cell proliferation assay, MV4-11; assay type: cell-based, human; conditions: Homo sapiens, cell proliferation
Method: (§1) Cell lines were seeded into 96-well plates the afternoon prior to treatment. Approximately 18 hours later, bis and mono-aziridine dimeric naphthoquinone compounds were semi-serially diluted in dimethyl sulfoxide (DMSO) and then growth medium, and added to cells. Plates were incubated for 72 hours prior to addition of WST-1 (Promega®). Plates were read after 4 additional hours of incubation at 37° C. using a Bio-Tek Synergy® HT plate reader (Bio-Tek®). Data were analyzed and graphed using GraphPad Prism® Software (Graph Pad®).
(§2) Primary AML cells from patients and cell lines were seeded into 96-well plates the afternoon prior to treatment. Eighteen hours later, amino-dimeric naphthoquinone Compounds 106, 101, and 114 were semi-serially diluted in dimethyl sulfoxide (DMSO) and then growth medium, and added to the cells. In order to quantitate proliferation of metabolically active cells, plates were incubated for 72 hours for cell lines and 48 hours for primary AML cells prior to addition of water-soluble tetrazolium (WST-1) (Clontech®). Plates were read after four additional hours of incubation at 37° C. using a Bio-Tek Synergy® HT plate reader (Bio-Tele®). Data were analyzed and graphed using GraphPad Prism® Software (GraphPad®). IC50 was defined as the concentration that decreases viable cell numbers by 50%. IC50 values were calculated as mean±standard deviation from at least two independent experiments. If availability of primary blasts was limited, the IC50 was obtained from a single experiment.

[3] = test system: AML cells; experiment: Cell proliferation assays, AML cells (lines not given singly); assay type: cell-based, human; conditions: MV4-11 and MOLM14, proliferation IC50
Method: as §2
(§3) Two AML cell lines (MV4-11 & MOLM14) were treated with increasing doses of the clinically used naphthoquinones, atovaquone and vitamin K, as well as with Compound 102; and IC50 curves were generated with respect to cell proliferation as described above.

[4] = target: T1, IDO-2 (Homo sapiens, UniProt Q6ZQW0); experiment: IDO-2 activity; assay type: biochemical
T1 sequence (Q6ZQW0 1-407): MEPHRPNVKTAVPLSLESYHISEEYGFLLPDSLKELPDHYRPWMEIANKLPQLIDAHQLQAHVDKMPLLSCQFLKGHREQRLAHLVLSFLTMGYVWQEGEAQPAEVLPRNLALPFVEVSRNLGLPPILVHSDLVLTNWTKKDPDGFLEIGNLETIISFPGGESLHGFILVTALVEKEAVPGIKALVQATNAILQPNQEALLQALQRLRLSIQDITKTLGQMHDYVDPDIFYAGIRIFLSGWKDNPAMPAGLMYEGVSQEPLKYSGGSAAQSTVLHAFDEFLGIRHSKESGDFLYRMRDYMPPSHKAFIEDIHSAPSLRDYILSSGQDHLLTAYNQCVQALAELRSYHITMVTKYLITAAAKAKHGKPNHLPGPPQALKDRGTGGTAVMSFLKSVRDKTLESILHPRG
Text: (§4) Methods were as described and according to known methods.

[5] = test system: AML cells; experiment: Clonogenicity of AML cells; assay type: cell-based, human
Method: MOLM-14 and THP-1 were treated with either DMSO control or mono-aziridine dimeric naphthoquinone or bis-aziridinyl dimeric naphthoquinone compounds at concentrations of 0.1, 1, 10 and 100 μM (micromolar) for 24 hours. The cells then were washed with growth medium and resuspended in growth medium and methylcellulose with or without DMSO or the treatment compounds. After 7 or 13 days (MOLM-14 or THP-1, respectively), treatment was terminated by addition of 1.0 mg/mL, iodonitrotetrazolium chloride (INT; Sigma Aldrich®) and read 24 hours later with an automated colony counter (Symbiosis®). Data were analyzed and graphed using GraphPad Prism® software.
as §3

[6] = test system: MOLM-14 cells; experiment: WST-1 cell proliferation assay, MOLM-14; assay type: cell-based, human; conditions: Homo sapiens, cell proliferation
Method: as §1, §2
To investigate antiproliferative activity of amino-dimeric naphthoquinones against AML cells, an MTT-like cell proliferation assay was performed in the AML cell lines using WST-1 (water soluble tetrazolium salts; Promega®). MOLM-14 and AML-D cells, as well as normal hematopoietic bone marrow cells from a healthy donor, were exposed to a range of concentrations of Compound 101. Human leukemia cells were cultured in the presence of the compound for 72 hours (48 hours for primary cells) and WST-1 reagent was then added. The cells then were monitored for cell growth or the number of cells proliferating and the IC50 calculated. The IC50 is the concentration at which 50% of the cells are not proliferating compared to control cells treated with vehicle. See FIG. 2A, FIG. 2B, and FIG. 2C for representative graphs of these IC50 determinations.

[7] = target: tryptophan-2,3-dioxygenase (TDO) (Homo sapiens, UniProt P48775); experiment: TDO activity; assay type: biochemical
Text: as §4

[8] = target: IDO-1 (Homo sapiens, UniProt P14902); experiment: IDO1 activity assay; assay type: biochemical
Text: as §4

[9] = test system: MV4-11 cells; experiment: Cellular reactive oxygen species (H2DCFA), MV4-11; assay type: cell-based, human
Method: MOLM-14 and THP-1 cells in logarithmic growth phase were centrifuged and resuspended in PBS at one million cells per milliliter (mL) of medium. Cells were preloaded with 2′,7′-dichlorodihydrofluorescein diacetate (H2DCFA, Life Technologies®) at a final concentration of 2 μM and incubated at 37° C. in the dark for 25 minutes. Cells were centrifuged and resuspended at one million per mL in phenol red-free RPMI plus 10% FBS and incubated at 37° C. in the dark for 25 minutes. Treatments were prepared at 2× concentrations of […] in complete phenol red-free RPMI and added to each well to yield 1× concentrations of 20, 10, 2, or 0.5 μM. Cells were incubated in the dark at 37° C. and measurement of ROS was performed with a Bio-tek® Synergy HT plate reader at various time points post treatment.
as §3
The amount of reactive oxygen species (ROS) that cells produced upon treatment with Compound 102 then was examined. See results in FIG. 9B. The cells were loaded with the ROS dye H2DCFA and subsequently plated into 96-well plates. […] The relative fluorescence units (RFU) were read at various time points. […]

[10] = test system: AML blasts; experiment: γH2AX foci in treated AML blasts; assay type: cell-based

IDO-1, sequence (P14902 whole entry, species assumed): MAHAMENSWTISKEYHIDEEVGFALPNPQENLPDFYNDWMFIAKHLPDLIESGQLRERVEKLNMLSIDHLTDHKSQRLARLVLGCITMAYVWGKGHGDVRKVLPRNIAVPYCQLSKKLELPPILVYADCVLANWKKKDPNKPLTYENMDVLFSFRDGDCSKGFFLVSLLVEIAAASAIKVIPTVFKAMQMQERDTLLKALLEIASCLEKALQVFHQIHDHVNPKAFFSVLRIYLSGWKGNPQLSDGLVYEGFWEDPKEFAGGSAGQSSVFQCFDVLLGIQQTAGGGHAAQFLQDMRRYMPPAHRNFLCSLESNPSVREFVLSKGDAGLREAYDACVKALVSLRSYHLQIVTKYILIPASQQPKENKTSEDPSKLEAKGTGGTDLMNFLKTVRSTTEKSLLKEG
tryptophan-2,3-dioxygenase (TDO), sequence (P48775 whole entry, species assumed): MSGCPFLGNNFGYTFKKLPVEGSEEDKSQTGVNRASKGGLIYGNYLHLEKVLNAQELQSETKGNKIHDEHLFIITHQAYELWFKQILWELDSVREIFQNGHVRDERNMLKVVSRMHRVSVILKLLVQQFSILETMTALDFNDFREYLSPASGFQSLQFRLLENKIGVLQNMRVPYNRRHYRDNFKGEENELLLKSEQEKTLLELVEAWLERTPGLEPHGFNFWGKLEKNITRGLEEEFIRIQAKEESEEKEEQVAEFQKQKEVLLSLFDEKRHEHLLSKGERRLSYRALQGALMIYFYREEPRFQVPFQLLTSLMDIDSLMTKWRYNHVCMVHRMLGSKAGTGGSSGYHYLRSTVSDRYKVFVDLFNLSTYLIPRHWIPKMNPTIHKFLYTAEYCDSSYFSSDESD

O=C1C(NCCO)=C(C2=C(NCCO)C(=O)c3ccccc3C2=O)C(=O)c2ccccc21 [Compound 102, 3,3′-[(2-hydroxyethyl)amino]-2,2′-binaphthalenyl-1,1′,4,4′-tetrone]
cell survival, MV4-11 [1]: dose-dependent reduction in cell survival | IC50 ([2]; MV4-11, Table 2, read-out: MV411 IC50): 0.2 ± 0.2 µM | IC50 ([2]; MV4-11, Table 3, read-out: MV411 IC50): 0.2 ± 0.2 µM | IC50 ([2]; MV4-11, Table 7, read-out: IC50 (μM) MV411): 0.2 µM | potency relative to other naphthoquinones (atovaquone, vitamin K) against AML cells [3]: 25-30 fold | inhibition of IDO-2 [4]: not | inhibition of clonogenicity of AML cells [5]: effectively inhibited clonogenicity of AML cells in a dose-dependent manner; also recorded: potent (nanomolar) inhibition of colony formation | IC50 ([6]; MOLM-14, Table 2, read-out: MOLM14 IC50): 0.16 ± 0.01 µM | IC50 ([6]; MOLM-14, Table 3, read-out: MOLM14 IC50): 0.16 ± 0.01 µM | IC50 ([6]; MOLM-14, Table 7, read-out: IC50 (μM) MOLM-14): 0.16 µM | inhibition of TDO [7]: not | inhibition at 1 µM [8]: 37% | inhibition at 10 µM [8]: 79% | ROS production ([9]; Example 13, cells not named in the block, 2-6 hours): dose-dependent increase in ROS production | ROS levels, MV4-11 ([9]; at IC50 concentration): ROS levels significantly peaked after 2 hours and returned to baseline within 24 hours | DNA damage (γH2AX foci) [10]: concomitant increase in DNA damage
